Legend:
Assay type in all cases: cell-based
[1] = target: T1, human TLR8 (Homo sapiens, UniProt Q9NR97); test: TLR8 inhibition reporter assay (HEK-Blue SEAP); conditions: HEK-Blue cells overexpressing human TLR8, stimulated with R848 15.9 μM, 22 hour incubation
T1 construct: host or cells: HEK-Blue cells
T1 sequence (Q9NR97 27-1041): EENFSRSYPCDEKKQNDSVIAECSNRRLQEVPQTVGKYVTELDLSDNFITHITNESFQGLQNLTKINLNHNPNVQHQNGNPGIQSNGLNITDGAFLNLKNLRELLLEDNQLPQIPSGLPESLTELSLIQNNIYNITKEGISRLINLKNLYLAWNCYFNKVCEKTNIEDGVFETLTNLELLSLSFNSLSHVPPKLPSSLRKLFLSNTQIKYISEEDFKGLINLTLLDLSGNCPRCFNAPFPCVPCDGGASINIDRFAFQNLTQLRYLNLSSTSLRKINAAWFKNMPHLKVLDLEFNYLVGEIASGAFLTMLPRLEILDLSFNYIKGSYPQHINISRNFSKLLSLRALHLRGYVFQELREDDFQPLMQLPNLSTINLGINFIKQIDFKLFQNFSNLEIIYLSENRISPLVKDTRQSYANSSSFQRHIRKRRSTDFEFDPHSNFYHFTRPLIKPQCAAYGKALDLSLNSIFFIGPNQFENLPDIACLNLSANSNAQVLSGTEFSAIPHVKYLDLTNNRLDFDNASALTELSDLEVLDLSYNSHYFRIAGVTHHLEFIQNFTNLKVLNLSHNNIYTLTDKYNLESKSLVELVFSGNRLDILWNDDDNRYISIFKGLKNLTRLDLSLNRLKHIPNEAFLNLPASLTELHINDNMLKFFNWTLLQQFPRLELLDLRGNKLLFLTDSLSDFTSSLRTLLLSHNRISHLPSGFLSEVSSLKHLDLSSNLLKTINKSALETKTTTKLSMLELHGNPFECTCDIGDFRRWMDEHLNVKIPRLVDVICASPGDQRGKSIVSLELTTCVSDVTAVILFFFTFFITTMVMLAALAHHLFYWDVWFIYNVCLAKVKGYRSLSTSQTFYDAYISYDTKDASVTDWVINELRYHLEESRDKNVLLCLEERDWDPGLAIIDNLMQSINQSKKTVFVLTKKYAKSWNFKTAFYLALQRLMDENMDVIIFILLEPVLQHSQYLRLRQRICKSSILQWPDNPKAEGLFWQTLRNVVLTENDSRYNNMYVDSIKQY
Procedure, shortened: (§1)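 Test compounds, final 0.05 nM–50 μM, pre-treat HEK-Blue human TLR7, TLR8 or TLR9 reporter cells before agonist addition (TLR8 R848 15.9 μM; TLR7 gardiquimod 7.5 μM; TLR9 ODN2006 5 nM). Incubation runs 22 h, 37 °C. SEAP detection gives percent inhibition against DMSO and reference-inhibitor controls.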

[2] = target: T2, human TLR9 (Homo sapiens, UniProt Q9NR96); test: TLR9 inhibition reporter assay (HEK-Blue SEAP); conditions: HEK-Blue cells overexpressing human TLR9, stimulated with ODN2006 5 nM, 22 hour incubation
T2 construct: host or cells: HEK-Blue cells
T2 sequence (Q9NR96 26-1032): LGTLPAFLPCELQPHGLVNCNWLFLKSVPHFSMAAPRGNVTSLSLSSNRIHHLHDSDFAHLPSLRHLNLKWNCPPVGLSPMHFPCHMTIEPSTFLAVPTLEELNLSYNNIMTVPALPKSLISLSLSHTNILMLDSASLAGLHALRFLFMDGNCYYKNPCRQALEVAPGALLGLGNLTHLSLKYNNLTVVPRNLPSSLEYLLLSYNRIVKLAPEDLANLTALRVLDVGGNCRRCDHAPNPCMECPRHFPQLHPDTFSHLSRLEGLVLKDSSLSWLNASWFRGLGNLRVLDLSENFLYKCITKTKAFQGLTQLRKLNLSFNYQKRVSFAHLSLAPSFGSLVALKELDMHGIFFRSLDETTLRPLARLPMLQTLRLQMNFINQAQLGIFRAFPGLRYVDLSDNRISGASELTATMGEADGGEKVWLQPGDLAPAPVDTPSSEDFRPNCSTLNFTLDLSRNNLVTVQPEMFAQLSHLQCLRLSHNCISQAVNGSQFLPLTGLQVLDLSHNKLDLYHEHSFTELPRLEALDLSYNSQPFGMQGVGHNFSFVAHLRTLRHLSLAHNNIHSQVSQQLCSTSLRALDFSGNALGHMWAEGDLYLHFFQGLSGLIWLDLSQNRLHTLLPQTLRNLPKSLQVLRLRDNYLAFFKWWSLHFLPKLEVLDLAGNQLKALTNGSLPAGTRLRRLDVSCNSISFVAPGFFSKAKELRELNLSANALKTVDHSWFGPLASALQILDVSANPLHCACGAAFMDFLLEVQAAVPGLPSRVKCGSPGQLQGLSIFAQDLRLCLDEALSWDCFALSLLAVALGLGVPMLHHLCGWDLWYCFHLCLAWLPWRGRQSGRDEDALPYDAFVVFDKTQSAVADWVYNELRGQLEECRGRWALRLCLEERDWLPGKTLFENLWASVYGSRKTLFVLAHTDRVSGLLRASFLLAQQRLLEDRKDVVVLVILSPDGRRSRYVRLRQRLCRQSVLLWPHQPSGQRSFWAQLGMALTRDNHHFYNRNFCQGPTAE
Procedure, shortened: as §1

[3] = target: T3, human TLR7 (Homo sapiens, UniProt Q9NYK1); test: TLR7 inhibition reporter assay (HEK-Blue SEAP); conditions: HEK-Blue cells overexpressing human TLR7, stimulated with gardiquimod 7.5 μM, 22 hour incubation
T3 construct: host or cells: HEK-Blue cells
T3 sequence (Q9NYK1 27-1049): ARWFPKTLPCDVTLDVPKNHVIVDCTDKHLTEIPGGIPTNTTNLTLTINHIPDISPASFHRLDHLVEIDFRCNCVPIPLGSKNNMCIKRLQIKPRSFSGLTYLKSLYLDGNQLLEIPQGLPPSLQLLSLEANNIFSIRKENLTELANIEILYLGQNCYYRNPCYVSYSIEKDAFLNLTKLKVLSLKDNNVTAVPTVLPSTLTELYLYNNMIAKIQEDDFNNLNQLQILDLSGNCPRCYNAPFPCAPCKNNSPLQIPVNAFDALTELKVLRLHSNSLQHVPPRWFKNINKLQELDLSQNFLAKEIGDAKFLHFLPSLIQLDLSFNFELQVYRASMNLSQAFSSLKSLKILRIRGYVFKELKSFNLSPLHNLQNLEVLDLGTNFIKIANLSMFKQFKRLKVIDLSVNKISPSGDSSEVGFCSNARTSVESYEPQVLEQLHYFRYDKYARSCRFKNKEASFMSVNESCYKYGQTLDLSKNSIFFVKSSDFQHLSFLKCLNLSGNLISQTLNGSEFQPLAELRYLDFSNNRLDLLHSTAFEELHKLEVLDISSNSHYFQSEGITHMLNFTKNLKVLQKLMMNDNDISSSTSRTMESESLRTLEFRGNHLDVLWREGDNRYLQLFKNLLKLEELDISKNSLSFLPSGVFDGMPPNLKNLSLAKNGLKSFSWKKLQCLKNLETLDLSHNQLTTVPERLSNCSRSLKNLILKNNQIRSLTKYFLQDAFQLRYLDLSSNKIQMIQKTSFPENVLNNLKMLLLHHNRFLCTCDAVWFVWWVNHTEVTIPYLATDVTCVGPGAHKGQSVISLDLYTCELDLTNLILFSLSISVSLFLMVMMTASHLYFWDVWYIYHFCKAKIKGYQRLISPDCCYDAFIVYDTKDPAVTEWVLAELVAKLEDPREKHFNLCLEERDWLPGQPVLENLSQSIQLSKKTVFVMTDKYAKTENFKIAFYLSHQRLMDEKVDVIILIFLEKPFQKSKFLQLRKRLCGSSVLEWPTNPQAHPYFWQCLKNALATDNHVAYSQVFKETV
Procedure, shortened: as §1

## COc1cc(-c2[nH]c3ccc(OC4CCN(C)CC4)cc3c2C(C)C)cn2ncnc12 [Example 65, 6-(3-isopropyl-5-((1-methylpiperidin-4-yl)oxy)-1H-indol-2-yl)-8-methoxy-[1,2,4]triazolo[1,5-a]pyridine]
[1]
  IC50: 0.0005 µM
[2]
  IC50: 1.75 µM
[3]
  IC50: 0.0003 µM

## Cc1cc(-c2[nH]c3ccc(OC4CCN(C)CC4)cc3c2C(C)C)ccn1 [Example 179, 3-isopropyl-5-((1-methylpiperidin-4-yl)oxy)-2-(2-methylpyridin-4-yl)-1H-indole]
[1]
  IC50: 0.0025 µM
[2]
  IC50: 1.44 µM
[3]
  IC50: 0.0397 µM

## Cc1cc(-c2[nH]c3ccc(OC4CCC(OC5CCNCC5)CC4)cc3c2C(C)C)ccn1 (stereo not drawn) [Example 184, 3-isopropyl-2-(2-methylpyridin-4-yl)-5-((4-(piperidin-4-yloxy)cyclohexyl)oxy)-1H-indole]
[1]
  IC50: 0.0546 µM
[2]
  IC50: 5.3 µM
[3]
  IC50: 0.0519 µM

## Cc1cc(-c2[nH]c3ccc(OCC(=O)N4CCCC5(CNC5)C4)cc3c2C(C)C)ccn1 [Example 140, 2-((3-isopropyl-2-(2-methylpyridin-4-yl)-1H-indol-5-yl)oxy)-1-(2,6-diazaspiro[3.5]nonan-6-yl)ethan-1-one]
[1]
  IC50: 0.216 µM
[2]
  IC50: 0.886 µM
[3]
  IC50: 0.629 µM

## COCCN1CCC(COc2ccc3[nH]c(-c4ccnc(C)c4)c(C(C)C)c3c2)C1 (stereo not drawn) [Example 194, 3-isopropyl-5-((1-(2-methoxyethyl)pyrrolidin-3-yl)methoxy)-2-(2-methylpyridin-4-yl)-1H-indole]
[1]
  IC50: 0.0137 µM
[2]
  IC50: 1.46 µM
[3]
  IC50: 0.113 µM

## COc1ccc(-c2[nH]c3ccc(OCC(=O)N(C)C4CN5CCC4CC5)cc3c2C(C)C)cc1OC (stereo not drawn) [Example 121, 2-((2-(3,4-dimethoxyphenyl)-3-isopropyl-1H-indol-5-yl)oxy)-N-methyl-N-((1s,4s)-quinuclidin-3-yl)acetamide]
[1]
  IC50: 0.0577 µM
[2]
  IC50: 3.55 µM
[3]
  IC50: 0.0268 µM

## Cc1cc(-c2[nH]c3ccc(OCC(=O)N4CCC5(CCNCC5)C4)cc3c2C(C)C)ccn1 [Example 144, 2-((3-isopropyl-2-(2-methylpyridin-4-yl)-1H-indol-5-yl)oxy)-1-(2,8-diazaspiro[4.5]decan-2-yl)ethan-1-one]
[1]
  IC50: 0.176 µM
[2]
  IC50: 0.296 µM
[3]
  IC50: 0.917 µM

## COc1ccc(-c2[nH]c3ccc(OCC(=O)N[C@@H]4CCCNC4)cc3c2C(C)C)cc1OC [Example 137, (R)-2-((2-(3,4-dimethoxyphenyl)-3-isopropyl-1H-indol-5-yl)oxy)-N-(piperidin-3-yl)acetamide]
[1]
  IC50: 0.0091 µM
[2]
  IC50: 2.14 µM
[3]
  IC50: 0.142 µM

## Cc1cc(-c2[nH]c3ccc(OCCN4CCC(F)(F)CC4)cc3c2C(C)C)cn2ncnc12 [Example 3, 6-(5-(2-(4,4-difluoropiperidin-1-yl)ethoxy)-3-isopropyl-1H-indol-2-yl)-8-methyl-[1,2,4]triazolo[1,5-a]pyridine]
[1]
  IC50: 0.011 µM
[2]
  IC50: 18.7 µM
[3]
  IC50: 0.0264 µM

## Cc1cc(-c2[nH]c3ccc(OC4CCN(CC(C)(C)O)CC4)cc3c2C(C)C)cn2ncnc12 [Example 22, 1-(4-((3-isopropyl-2-(8-methyl-[1,2,4]triazolo[1,5-a]pyridin-6-yl)-1H-indol-5-yl)oxy)piperidin-1-yl)-2-methylpropan-2-ol]
[1]
  IC50: 0.0092 µM
[2]
  IC50: 4.41 µM
[3]
  IC50: 0.0063 µM

## Cc1cc(-c2[nH]c3ccc(OCC(=O)NCCC4CCCNC4)cc3c2C(C)C)ccn1 (stereo not drawn) [Example 146, 2-((3-isopropyl-2-(2-methylpyridin-4-yl)-1H-indol-5-yl)oxy)-N-(2-(piperidin-3-yl)ethyl)acetamide]
[1]
  IC50: 0.0984 µM
[2]
  IC50: 0.937 µM
[3]
  IC50: 0.771 µM

## Cc1cc(-c2[nH]c3ccc(OCC4CN(CC(C)(C)O)C4)cc3c2C(C)C)cn2ncnc12 [Example 26, 1-(3-(((3-isopropyl-2-(8-methyl-[1,2,4]triazolo[1,5-a]pyridin-6-yl)-1H-indol-5-yl)oxy)methyl)azetidin-1-yl)-2-methylpropan-2-ol]
[1]
  IC50: 0.0035 µM
[2]
  IC50: 3.16 µM
[3]
  IC50: 0.0011 µM

## Cc1c(-c2[nH]c3ccc(OCC4CCN(CC(=O)N(C)C)CC4)cc3c2C(C)C)cn(C)c(=O)c1C [Example 88, 2-(4-(((3-isopropyl-2-(1,4,5-trimethyl-6-oxo-1,6-dihydropyridin-3-yl)-1H-indol-5-yl)oxy)methyl)piperidin-1-yl)-N,N-dimethylacetamide]
[1]
  IC50: 0.0224 µM
[2]
  IC50: 15.3 µM
[3]
  IC50: 0.0509 µM

## Cc1cc(-c2[nH]c3ccc(OCC(=O)N4CC5CNCC5C4)cc3c2C(C)C)ccn1 (stereo not drawn) [Example 145, 1-(hexahydropyrrolo[3,4-c]pyrrol-2(H)-yl)-2-((3-isopropyl-2-(2-methylpyridin-4-yl)-1H-indol-5-yl)oxy)ethan-1-one]
[1]
  IC50: 0.137 µM
[2]
  IC50: 0.26 µM
[3]
  IC50: 0.315 µM

Reference: patent US12030878B2 (BRISTOL-MYERS SQUIBB COMPANY, priority 2017, dated 2024)
